This experiment concerns the target T1, CCR10 (Homo sapiens, UniProt P46092).
T1 construct: purchased Promega (in-house HiBiT-GPCR construct library, NanoBRET)
T1 sequence (P46092 1-362): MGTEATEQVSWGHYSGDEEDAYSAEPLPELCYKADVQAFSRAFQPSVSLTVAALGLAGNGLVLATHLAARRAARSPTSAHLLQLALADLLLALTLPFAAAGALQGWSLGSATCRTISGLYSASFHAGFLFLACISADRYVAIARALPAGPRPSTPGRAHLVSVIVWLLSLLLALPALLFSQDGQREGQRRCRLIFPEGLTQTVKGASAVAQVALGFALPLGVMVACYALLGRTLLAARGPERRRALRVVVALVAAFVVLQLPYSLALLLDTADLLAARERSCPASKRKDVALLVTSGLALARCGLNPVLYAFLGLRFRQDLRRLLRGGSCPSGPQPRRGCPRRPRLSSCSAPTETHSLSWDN
In words: NanoBRET screen HiBiT-CCR10 in HEK293. The class given is binding. How it is done:
Each tracer candidate was screened across the entire library of HiBiT-GPCR constructs using NanoBRET as the detection modality. As depicted in Figure 4A, the specificity of interactions was evaluated through decrease in BRET due to competitive displacement of a bound tracer by excess parental compound. Each tracer was analyzed for binding to each HiBiT-GPCR fusion in the absence and in the presence of competing parental compound. Briefly, HEK293 cells were transfected with HiBiT-GPCR constructs diluted into promoterless DNA to reduce expression and maximize translocation to the cell surface. Each tracer candidate was then screened at concentrations of 1 μM and 0.1 μM across cells expressing these fusions. Cells were treated for 1.5 h with tracer either alone or in the presence of 20 μM competing parental compound (i.e., control). BRET was measured upon addition of purified LgBiT and subsequent complementation with HiBiT genetically fused to a GPCR. The specificity of interactions was assessed through a decrease in BRET signal due to competitive displacement of the bound tracer. To further gauge the robustness of these interactions, the fold response over the control (i.e., BRETtracer/BRETcontrol) was calculated. We chose a 1.5-fold response, which translates to ≥7-fold signal over noise as the minimal threshold required to score an interaction as positive.
HiBiT-GPCR DNA constructs were diluted in 10 mM Tris pH 8 to a final concentration of 0.01 μg/μL, arrayed in 96-well plates and stored at −20 °C. For transfection, HEK293 cells were suspended in Opti-MEM (without phenol red) supplemented with 2% fetal bovine serum (Seradigm) and 100 units/mL penicillin–streptomycin (Gibco) at a final concentration of 220,000 cells/mL and dispensed into white 96-well plates at 90 μL/well. Subsequent transfections and screens were carried using an Agilent Bravo Automated Liquid Handling Platform. First, the 96-well HiBiT DNA arrays were diluted 25-fold in Opti-MEM (without serum or phenol red) to a final concentration of 0.0004 μg/μL and 20 μL of the diluted DNAs were transferred into new 96-well plates. Next, promoterless carrier DNA (1 μg/μL) was diluted 25-fold (0.04 μg/μL) and then dispensed into the diluted arrays at 20 μL/well. Following brief mixing, Viafect transfection reagent (Promega) diluted 16-fold into Opti-MEM was dispensed into the plates at 40 μL/well. After mixing by pipetting, plates were incubated for 10 min on the pipetting station deck. The DNA-transfection reagent complexes were then added to plates containing cells. To facilitate the screen, 10 μL of DNA-transfection reagent complexes were added in duplicates to the top 4 and bottom 4 rows, resulting in two identical 48-well arrays per plate. Plates with transfected cells were incubated for 18–20 h at 37 °C/5% CO2. A screen of each tracer across the entire library using two different concentrations requires duplicate plates of transfected cells. Depending on the number of tracers being screened, transfections can be scaled up using the same ratios. The next day, for each tracer, four 20× screening solutions in tracer dilution buffer (Promega) were prepared: two duplicates at final concentration of 20 μM and two duplicates at a final concentration of 2 μM. […] The four resulting solutions were diluted 4-fold in Opti-MEM without serum or phenol red to generate 5× solutions (5 µM and 0.5 µM tracer +/− 100 μM competing compound). To screen the library, a BioTek MultiFlo FX liquid dispenser was used to dispense 22.5 µL of tracer solution to the top 4 rows and 22.5 µL tracer + competing compound solution to the 4 bottom rows. Plates were briefly mixed on an orbital shaker and incubated for 1.5 h at room temperature. […] Plates were briefly mixed on an orbital shaker and incubated for 15 min to allow complementation.
For orientation: BRET reads energy transfer from a luciferase to a nearby fluorophore.

Regarding `COc1ccc2c(n1)c(CCNC(C)=O)cn2CCNC(=O)CCc1ccc2n1[B-](F)(F)[N+]1=C(c3ccc[nH]3)C=CC1=C2` [Azamelatonin-1-NB590], the “NanoBRET Fold Response” value is 0.84 (0.1μM tracer) and 0.85 (1μM tracer).

In the case of `CC(C)N(CC[C@H](c1ccccc1)c1cc(CCNC(=O)c2ccc(CNC(=O)CCc3ccc4n3[B-](F)(F)[N+]3=C(c5ccc[nH]5)C=CC3=C4)cc2)ccc1O)C(C)C` [Tolterodine-BZ-NB590], the “NanoBRET Fold Response” value reads like this: (CCR10, tracer 0.1μM) 1.00; (CCR10, tracer 1μM) 1.08.

For `O=C(CCc1ccc2n1[B-](F)(F)[N+]1=C(c3ccc[nH]3)C=CC1=C2)NCCOCCOCCNC(=O)OCCOCCN1CCN(C2=Nc3ccccc3Sc3ccccc32)CC1` [Quetiapine-a-2-NB590], the “NanoBRET Fold Response” value reads like this: (CCR10, tracer 0.1μM) 1.01; (CCR10, tracer 1μM) 0.94.

Take `Cc1cc2c(s1)Nc1ccccc1N=C2N1CCN(CCCNC(=O)CCOCCOCCOCCOCCNC(=O)CCc2ccc3n2[B-](F)(F)[N+]2=C(c4ccc[nH]4)C=CC2=C3)CC1` [Olanzapine-a-2-NB590]: the “NanoBRET Fold Response” value (CCR10, tracer 0.1μM) is given as 1.01 and the “NanoBRET Fold Response” value (CCR10, tracer 1μM) was 0.95.

With `O=C(CCc1ccc2n1[B-](F)(F)[N+]1=C(c3ccc[nH]3)C=CC1=C2)NCc1ccc(C(=O)NCCOCCOCCNCC(O)COc2cccc3ccccc23)cc1` (stereo not shown) [Propranolol-3-NB590], the “NanoBRET Fold Response” value (CCR10, 0.1μM) is 1.04 and the “NanoBRET Fold Response” value (CCR10, 1μM) is 1.00.

As for `CN1CCN(C2=Nc3cc(Cl)ccc3N(CC(=O)NCCOCCOCCOCCOCCNC(=O)CCc3ccc4n3[B-](F)(F)[N+]3=C(c5ccc[nH]5)C=CC3=C4)c3ccccc32)CC1` [Clozapine-c-2-NB590], the “NanoBRET Fold Response” value was found to be 1.00 (CCR10, 0.1μM tracer) and 0.91 (CCR10, 1μM tracer).

With `O=C(CCc1ccc2n1[B-](F)(F)[N+]1=C(c3ccc[nH]3)C=CC1=C2)NCc1ccc(C(=O)NCCOCCC(=O)N[C@@H]2CC[C@@]3(O)[C@H]4Cc5ccc(O)c6c5[C@@]3(CCN4CC3CC3)[C@H]2O6)cc1` [Naltrexone-3-NB590], the “NanoBRET Fold Response” value is recorded as 1.02 (CCR10, tracer 0.1μM) and 0.92 (CCR10, tracer 1μM).

As for `CC(C)N(CC[C@H](c1ccccc1)c1cc(CCNC(=O)CCOCCOCCOCCOCCNC(=O)CCc2ccc3n2[B-](F)(F)[N+]2=C(c4ccc[nH]4)C=CC2=C3)ccc1O)C(C)C` [Tolterodine-2-NB590], the “NanoBRET Fold Response” value by setting is: (CCR10, tracer 0.1μM) 1.17; (CCR10, tracer 1μM) 0.97.

As for `Cc1nc2n(c(=O)c1CCN1CCC(c3noc4cc(F)ccc34)CC1)CCCC2OC(=O)NCCOCCOCCOCCOCCNC(=O)CCc1ccc2n1[B-](F)(F)[N+]1=C(c3ccc[nH]3)C=CC1=C2` (stereo not shown) [Risperidone-2-NB590], for the setting “CCR10, tracer 1μM”, the “NanoBRET Fold Response” value was 0.95.

As for `O=C(CCOCCOCCOCCOCCNC(=O)CCc1ccc2n1[B-](F)(F)[N+]1=C(c3ccc[nH]3)C=CC1=C2)NCCCN1CCN(C2=Nc3cc(Cl)ccc3Nc3ccccc32)CC1` [Clozapine-a-2-NB590], the “NanoBRET Fold Response” value was 1.04 (CCR10, 0.1μM tracer) and 1.01 (CCR10, 1μM tracer).

Take `COc1ccc2[nH]c(-c3ccc(CNC(=O)CCOCCOCCOCCOCCNC(=O)CCc4ccc5n4[B-](F)(F)[N+]4=C(c6ccc[nH]6)C=CC4=C5)cc3)c(CCNC(C)=O)c2n1` [AzomelatoninICO9-2-NB590]: the “NanoBRET Fold Response” value was determined as 0.87 (0.1μM tracer) and 1.18 (1μM tracer).

`CN1CCN(C2=Nc3cc(Cl)ccc3Nc3ccc(CNC(=O)CCOCCOCCOCCOCCNC(=O)CCc4ccc5n4[B-](F)(F)[N+]4=C(c6ccc[nH]6)C=CC4=C5)cc32)CC1` [Clozapine-b-2-NB590]: the “NanoBRET Fold Response” value worked out at 1.01 (CCR10, 0.1μM tracer) and 1.15 (CCR10, 1μM tracer).

As for `COc1ccccc1N1CCN(CCCCN2C(=O)c3ccc(CNC(=O)CCOCCNC(=O)c4ccc(CNC(=O)CCc5ccc6n5[B-](F)(F)[N+]5=C(c7ccc[nH]7)C=CC5=C6)cc4)cc3C2=O)CC1` [NAN-190-3-NB590], the “NanoBRET Fold Response” value (CCR10, tracer 0.1μM) stood at 1.04 and the “NanoBRET Fold Response” value (CCR10, tracer 1μM) is listed as 1.27.

With `N#CN=C(NCCCOc1cccc(CN2CCCCC2)c1)NCCNC(=O)CCOCCOCCOCCOCCNC(=O)CCc1ccc2n1[B-](F)(F)[N+]1=C(c3ccc[nH]3)C=CC1=C2` [Aminopotentidine-2-NB590], the “NanoBRET Fold Response” value is, setting by setting: (CCR10, tracer 0.1μM) 1.00; (CCR10, tracer 1μM) 1.01.

Regarding `CN(C)CCC=C1c2ccccc2CCc2ccc(C(=O)NCCNC(=O)CCOCCOCCOCCOCCNC(=O)CCc3ccc4n3[B-](F)(F)[N+]3=C(c5ccc[nH]5)C=CC3=C4)cc21` [Amitriptyline-b-2-NB590], the “NanoBRET Fold Response” value (tracer at 0.1μM, listed as amitriptyline-b-2-NB590) is on record as 1.05 and the “NanoBRET Fold Response” value (tracer at 1μM, listed as amitriptyline-b-2-NB590) worked out at 1.19.

With `COc1ccccc1N1CCN(CCCCN2C(=O)c3ccc(CNC(=O)CCOCCOCCOCCOCCNC(=O)CCc4ccc5n4[B-](F)(F)[N+]4=C(c6ccc[nH]6)C=CC4=C5)cc3C2=O)CC1` [NAN-190-2-NB590], the “NanoBRET Fold Response” value runs as follows: (CCR10, tracer 0.1μM) 0.97; (CCR10, tracer 1μM) 1.00.

On to `O=C(CCOCCOCCOCCOCCNC(=O)CCc1ccc2n1[B-](F)(F)[N+]1=C(c3ccc[nH]3)C=CC1=C2)NCCCN1CCN(C2=Nc3ccccc3Oc3ccc(Cl)cc32)CC1` [Loxapine-a-2-NB590], for which the “NanoBRET Fold Response” value (CCR10, tracer 0.1μM) was determined as 1.04 and the “NanoBRET Fold Response” value (CCR10, tracer 1μM) is given as 1.04.

On to `CN(CCC=C1c2ccccc2CCc2ccccc21)C(=O)CCOCCOCCOCCOCCNC(=O)CCc1ccc2n1[B-](F)(F)[N+]1=C(c3ccc[nH]3)C=CC1=C2` [Amitriptyline-e-2-NB590], for which the “NanoBRET Fold Response” value (tracer at 1μM) is on record as 1.04.

For the molecule `CCCn1c(=O)c2[nH]c(-c3ccc(OCC(=O)NCCNC(=O)CCOCCNC(=O)c4ccc(CNC(=O)CCc5ccc6n5[B-](F)(F)[N+]5=C(c7ccc[nH]7)C=CC5=C6)cc4)cc3)nc2n(CCC)c1=O` [XAC-3-NB590], the “NanoBRET Fold Response” value is reported as 0.92 (CCR10, tracer 0.1μM) and 0.78 (CCR10, tracer 1μM).

Regarding `CN(C)CCC=C1c2ccccc2CCc2ccc(C(=O)NCCNC(=O)CCOCCOCCOCCOCCNC(=O)CCc3ccc4n3[B-](F)(F)[N+]3=C(c5ccc[nH]5)C=CC3=C4)cc21` [Amitriptyline-a-2-NB590], the “NanoBRET Fold Response” value came out at 1.02 (tracer at 0.1μM) and 1.00 (tracer at 1μM).

Consider `CCOC(=O)c1cc(C#N)c(N2CCC(C(=O)NS(=O)(=O)Cc3ccccc3/C=C/C(=O)NCCNC(=O)CCc3ccc4n3[B-](F)(F)[N+]3=C(c5ccc[nH]5)C=CC3=C4)CC2)nc1C` [AZD1283-1-NB590], for which the “NanoBRET Fold Response” value is, setting by setting: (CCR10, 0.1μM) 1.00; (CCR10, 1μM) 1.07.

Values taken from paper PMC8151276, “An Integrated Approach toward NanoBRET Tracers for Analysis of GPCR Ligand Engagement” (Molecules, 2021).
